In patent US20210128566A1, “NOVEL FUNCTIONALIZED PURINE-2,6-DIONES AND THEIR USE IN MEDICINE” (THOMAS HELLEDAYS STIFTELSE FÖR MEDICINSK FORSKNING, priority 2017, published 2021):

molecular target: recombinant human NUDT5 (Homo sapiens, UniProt Q9UKK9); assay: NUDT5 inhibitor activity by malachite green reporter assay; type: biochemical; conditions: Table 3; 6 nM NUDT5, 50 μM ADP-Ribose, 15 minutes at room temperature
In short: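 Coupled ADP-ribose hydrolysis in 10 mM Tris-acetate pH 8.0, 40 mM NaCl, 10 mM Mg acetate, 0.005% Tween-20, 1 mM DTT: 6 nM NUDT5, 50 μM ADP-Ribose, 10 U/ml alkaline phosphatase, 15 min at room temperature. Pi read by malachite green at 630 nm; compounds 100 μM–1.7 nM, 3-fold; IC50 by curve fit.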

Point of comparison: `Cn1c(=O)c2c(nc(NCCO)n2Cc2nnc(-c3ccc(Cl)c(Cl)c3)o2)n(C)c1=O` [Example 2, 7-{[5-(3,4-dichlorophenyl)-1,3,4-oxadiazol-2-yl]methyl}-8-[(2-hydroxyethyl)amino]-1,3-dimethyl-2,3,6,7-tetrahydro-1H-purine-2,6-dione], IC50 0.0237 µM. Against it:
- Cn1c(=O)c2c(nc(N3CCC(CCO)CC3)n2Cc2nnc(-c3ccc(Cl)c(Cl)c3)o2)n(C)c1=O [Example 20, 7-{[5-(3,4-dichlorophenyl)-1,3,4-oxadiazol-2-yl]methyl}-8-[4-(2-hydroxyethyl)piperidin-1-yl]-1,3-dimethyl-2,3,6,7-tetrahydro-1H-purine-2,6-dione] — within 1.5-fold, 0.03 µM
- CCN(CC)c1nc2c(c(=O)n(C)c(=O)n2C)n1Cc1nnc(-c2ccc(Cl)c(Cl)c2)o1 [Example 4, 7-{[5-(3,4-dichlorophenyl)-1,3,4-oxadiazol-2-yl]methyl}-8-(diethylamino)-1,3-dimethyl-2,3,6,7-tetrahydro-1H-purine-2,6-dione] — higher, > 1 µM
- CCS(=O)(=O)c1nc2c(c(=O)n(C)c(=O)n2C)n1Cc1nnc(-c2ccc(Cl)c(Cl)c2)o1 [Example 23, 7-{[5-(3,4-dichlorophenyl)-1,3,4-oxadiazol-2-yl]methyl}-8-(ethanesulfonyl)-1,3-dimethyl-2,3,6,7-tetrahydro-1H-purine-2,6-dione] — within 1.5-fold, 0.0244 µM
- Cn1c(=O)c2c(nc(N3CCCCC3)n2Cc2nnc(-c3ccc(Cl)c(Cl)c3)o2)n(C)c1=O [Example 9, 7-{[5-(3,4-dichlorophenyl)-1,3,4-oxadiazol-2-yl]methyl}-1,3-dimethyl-8-(piperidin-1-yl)-2,3,6,7-tetrahydro-1H-purine-2,6-dione] — 1.6-fold lower, 0.015 µM
- Cn1c(=O)c2c(nc(N3CCC(N)C3)n2Cc2nnc(-c3ccc(Cl)c(Cl)c3)o2)n(C)c1=O (stereo not shown) [Example 25, 8-(3-aminopyrrolidin-1-yl)-7-{[5-(3,4-dichlorophenyl)-1,3,4-oxadiazol-2-yl]methyl}-1,3-dimethyl-2,3,6,7-tetrahydro-1H-purine-2,6-dione] — within 1.5-fold, 0.03 µM
- Cc1cccc(-c2nnc(Cn3c(N4CCN(C)CC4)nc4c3c(=O)n(C)c(=O)n4C)o2)c1 [Example 51, 1,3-dimethyl-7-{[5-(3-methylphenyl)-1,3,4-oxadiazol-2-yl]methyl}-8-(4-methylpiperazin-1-yl)-2,3,6,7-tetrahydro-1H-purine-2,6-dione] — within 1.5-fold, 0.0313 µM
- COCCN1CCN(c2nc3c(c(=O)n(C)c(=O)n3C)n2Cc2nnc(-c3cccc(C)c3)o2)CC1 [Example 57, 8-[4-(2-methoxyethyl)piperazin-1-yl]-1,3-dimethyl-7-{[5-(3-methylphenyl)-1,3,4-oxadiazol-2-yl]methyl}-2,3,6,7-tetrahydro-1H-purine-2,6-dione] — higher, > 1 µM
- CC(C)c1nc2c(c(=O)n(C)c(=O)n2C)n1Cc1nnc(-c2ccc(Cl)c(Cl)c2)o1 [Example 62, 7-{[5-(3,4-dichlorophenyl)-1,3,4-oxadiazol-2-yl]methyl}-1,3-dimethyl-8-(propan-2-yl)-2,3,6,7-tetrahydro-1H-purine-2,6-dione] — higher, > 1 µM

same assay, conditions: Table 4; 6 nM NUDT5, 50 μM ADP-Ribose, 15 minutes at room temperature

Point of comparison: `Cn1c(=O)c2c(nc(NCC3CCN(C(=N)N)CC3)n2Cc2nnc(-c3ccc(Cl)c(Cl)c3)o2)n(C)c1=O` [Example 85, 4-{[(7-{[5-(3,4-dichlorophenyl)-1,3,4-oxadiazol-2-yl]methyl}-1,3-dimethyl-2,6-dioxo-2,3,6,7-tetrahydro-1H-purin-8-yl)amino]methyl}piperidine-1-carboximidamide], IC50 0.0195 µM. Against it:
- Cn1c(=O)c2c(nc(Cl)n2Cc2nnc(-c3ccc(Cl)cc3)o2)n(C)c1=O [Example 89, 8-chloro-7-{[5-(4-chlorophenyl)-1,3,4-oxadiazol-2-yl]methyl}-1,3-dimethyl-2,3,6,7-tetrahydro-1H-purine-2,6-dione] — 32-fold higher, 0.62 µM
- COc1ccc(-c2cc(Cn3c(N4CCNCC4)nc4c3c(=O)n(C)c(=O)n4C)on2)cc1 [Example 78, 7-{[3-(4-methoxyphenyl)-1,2-oxazol-5-yl]methyl}-1,3-dimethyl-8-(piperazin-1-yl)-2,3,6,7-tetrahydro-1H-purine-2,6-dione] — 25-fold higher, 0.491 µM
- COc1cc(-c2nnc(Cn3c(N4CCCNCC4)nc4c3c(=O)n(C)c(=O)n4C)o2)ccc1C [Example 131, 8-(1,4-diazepan-1-yl)-7-{[5-(3-methoxy-4-methylphenyl)-1,3,4-oxadiazol-2-yl]methyl}-1,3-dimethyl-2,3,6,7-tetrahydro-1H-purine-2,6-dione] — 3.1-fold higher, 0.0607 µM
- COc1cc(-c2nnc(Cn3c(N(C)CCN(C)C)nc4c3c(=O)n(C)c(=O)n4C)o2)ccc1C [Example 137, 8-{[2-(dimethylamino)ethyl](methyl)amino}-7-{[5-(3-methoxy-4-methylphenyl)-1,3,4-oxadiazol-2-yl]methyl}-1,3-dimethyl-2,3,6,7-tetrahydro-1H-purine-2,6-dione] — within 1.5-fold, 0.0241 µM
- CN(C)CCN(C)c1nc2c(c(=O)n(C)c(=O)n2C)n1Cc1nnc(-c2ccc(Cl)c(Cl)c2)o1 [Example 135, 7-{[5-(3,4-dichlorophenyl)-1,3,4-oxadiazol-2-yl]methyl}-8-{[2-(dimethylamino)ethyl](methyl)amino}-1,3-dimethyl-2,3,6,7-tetrahydro-1H-purine-2,6-dione] — 4.9-fold higher, 0.0963 µM
- COc1cc(-c2nnc(Cn3c(N4CCC(CN)CC4)nc4c3c(=O)n(C)c(=O)n4C)o2)ccc1C [Example 127, 8-[4-(aminomethyl)piperidin-1-yl]-7-{[5-(3-methoxy-4-methylphenyl)-1,3,4-oxadiazol-2-yl]methyl}-1,3-dimethyl-2,3,6,7-tetrahydro-1H-purine-2,6-dione] — 1.7-fold higher, 0.0329 µM
- Cn1c(=O)c2c(nc(N3CCNCC3)n2Cc2nnc(-c3ccc(Cl)cc3)o2)n(C)c1=O [Example 108, 7-{[5-(4-chlorophenyl)-1,3,4-oxadiazol-2-yl]methyl}-1,3-dimethyl-8-(piperazin-1-yl)-2,3,6,7-tetrahydro-1H-purine-2,6-dione] — 5.1-fold higher, 0.099 µM
- COc1ccc(-c2nnc(Cn3c(N4CCNCC4)nc4c3c(=O)n(C)c(=O)n4C)o2)cc1 [Example 74, 7-{[5-(4-methoxyphenyl)-1,3,4-oxadiazol-2-yl]methyl}-1,3-dimethyl-8-(piperazin-1-yl)-2,3,6,7-tetrahydro-1H-purine-2,6-dione] — 10-fold higher, 0.198 µM
- CCOC(=O)c1cnn(-c2nc3c(c(=O)n(C)c(=O)n3C)n2Cc2nnc(-c3ccc(Cl)c(Cl)c3)o2)c1 [Example 68, ethyl 1-(7-{[5-(3,4-dichlorophenyl)-1,3,4-oxadiazol-2-yl]methyl}-1,3-dimethyl-2,6-dioxo-2,3,6,7-tetrahydro-1H-purin-8-yl)-1H-pyrazole-4-carboxylate] — 11-fold higher, 0.214 µM
- COc1ccc(-c2nnc(Cn3c(Cl)nc4c3c(=O)n(C)c(=O)n4C)o2)cc1 [Example 73, 8-chloro-7-{[5-(4-methoxyphenyl)-1,3,4-oxadiazol-2-yl]methyl}-1,3-dimethyl-2,3,6,7-tetrahydro-1H-purine-2,6-dione] — 65-fold higher, 1.26 µM
- COc1cc(-c2nnc(Cn3c(Cl)nc4c3c(=O)n(C)c(=O)n4C)o2)ccc1Cl [Example 98, 8-chloro-7-{[5-(4-chloro-3-methoxyphenyl)-1,3,4-oxadiazol-2-yl]methyl}-1,3-dimethyl-2,3,6,7-tetrahydro-1H-purine-2,6-dione] — 19-fold higher, 0.378 µM
- COc1cc(-c2nnc(Cn3c(NCC4CCN(C(=N)N)CC4)nc4c3c(=O)n(C)c(=O)n4C)o2)ccc1C [Example 128, 4-{[(7-{[5-(3-methoxy-4-methylphenyl)-1,3,4-oxadiazol-2-yl]methyl}-1,3-dimethyl-2,6-dioxo-2,3,6,7-tetrahydro-1H-purin-8-yl)amino]methyl}piperidine-1-carboximidamide] — 6.6-fold higher, 0.128 µM
- COc1cccc(-c2nnc(Cn3c(Cl)nc4c3c(=O)n(C)c(=O)n4C)o2)c1 [Example 92, 8-chloro-7-{[5-(3-methoxyphenyl)-1,3,4-oxadiazol-2-yl]methyl}-1,3-dimethyl-2,3,6,7-tetrahydro-1H-purine-2,6-dione] — 31-fold higher, 0.596 µM
- Cn1c(=O)c2c(nc(NCC(=O)OC(C)(C)C)n2Cc2nnc(-c3ccc(Cl)c(Cl)c3)o2)n(C)c1=O [Example 84, tert-butyl 2-[(7-{[5-(3,4-dichlorophenyl)-1,3,4-oxadiazol-2-yl]methyl}-1,3-dimethyl-2,6-dioxo-2,3,6,7-tetrahydro-1H-purin-8-yl)amino]acetate] — 4.8-fold higher, 0.0936 µM
- Cn1c(=O)c2c(nc(N3CCNCC3)n2Cc2nc(-c3ccc(Cl)cc3)no2)n(C)c1=O [Example 70, 7-{[3-(4-chlorophenyl)-1,2,4-oxadiazol-5-yl]methyl}-1,3-dimethyl-8-(piperazin-1-yl)-2,3,6,7-tetrahydro-1H-purine-2,6-dione] — 2.9-fold higher, 0.0574 µM
- COc1cc(-c2nnc(Cn3c(SCCN)nc4c3c(=O)n(C)c(=O)n4C)o2)ccc1C [Example 142, 8-[(2-aminoethyl)sulfanyl]-7-{[5-(3-methoxy-4-methylphenyl)-1,3,4-oxadiazol-2-yl]methyl}-1,3-dimethyl-2,3,6,7-tetrahydro-1H-purine-2,6-dione] — 2.5-fold higher, 0.0492 µM
- COc1cc(-c2nnc(Cn3c(NCCC(N)=O)nc4c3c(=O)n(C)c(=O)n4C)o2)ccc1C [Example 132, 3-[(7-{[5-(3-methoxy-4-methylphenyl)-1,3,4-oxadiazol-2-yl]methyl}-1,3-dimethyl-2,6-dioxo-2,3,6,7-tetrahydro-1H-purin-8-yl)amino]propanamide] — 8.1-fold higher, 0.157 µM
- Cn1c(=O)c2c(nc(N3CCN(CCNC(=O)OC(C)(C)C)CC3)n2Cc2nnc(-c3ccc(Cl)c(Cl)c3)o2)n(C)c1=O [Example 64, tert-butyl N-{2-[4-(7-{[5-(3,4-dichlorophenyl)-1,3,4-oxadiazol-2-yl]methyl}-1,3-dimethyl-2,6-dioxo-2,3,6,7-tetrahydro-1H-purin-8-yl)piperazin-1-yl]ethyl}carbamate] — 12-fold higher, 0.226 µM
